As usually defined, the EC50 is the concentration that produces a half-maximal response.

We go through four compounds from patent US11339153B2, “Compounds useful in modulating the farnesoid X receptor and methods of making and using the same” (Inorbit Therapeutics AB, priority 2018, dated 2022).

The nature of data set [1]: Metabolic identification in hepatocytes (mouse). Format: in vitro ADME. The protocol: (§1) Metabolic Identification in Hepatocytes.
(§2) A 10 mM stock of test compound from Example 4 (sodium 2-(3-((5-cyclopropyl-3-(2-(trifluoromethoxy)phenyl)isoxazol-4-yl)methoxy)-8-azabicyclo[3.2.1]octan-8-yl)-4-fluorobenzo[d]thiazole-6-sulfinate) was prepared in DMSO. 20 μM of final working stock was then prepared by diluting 4 μL of 10 mM stock in 1996 μL of Krebs-Hensleit buffer. 200 μL of hepatocyte cell suspension (2×10^6 cells/mL) was added to TPP 48 well plate and preincubated for 30 min@37° C. in incubator. 200 μL of 20 μM working stock of test compound was added to the cell suspension and incubated in an incubator on vibramax at a shaking speed of 500 rpm. For the 0 min sample, 25 μL of hepatocyte suspension was precipitated with 200 μL of acetonitrile and 25 μL of 20 μM test compound was added. The reaction was stopped at 15, 30, 60, 90, 120 min by precipitating 50 μL of incubation mixture with 200 μL of acetonitrile. The samples were vortexed for 5 min at 1200 rpm and centrifuged at 4000 rpm for 10 min. The supernatant was separated, diluted 2 fold with water and analysed using a HPLC (Shimadzu SIL HTS) and mass spectrometer (5500 Qtrap). Acetonitrile and 0.1% formic acid in Milli-q-water were used as the mobile phase, using a column of either Waters Xbridge C18, 250×3.0 mm, 5.0μ particle size or Phenomnex kinetex 5μ EVO C18 100 A, 50×4.6 mm 5.0μ particle size. […]

Data set [2] deals with T1, Human FXR receptor (NR1H4) (Homo sapiens, UniProt Q96RI1).
T1 sequence (Q96RI1 1-486): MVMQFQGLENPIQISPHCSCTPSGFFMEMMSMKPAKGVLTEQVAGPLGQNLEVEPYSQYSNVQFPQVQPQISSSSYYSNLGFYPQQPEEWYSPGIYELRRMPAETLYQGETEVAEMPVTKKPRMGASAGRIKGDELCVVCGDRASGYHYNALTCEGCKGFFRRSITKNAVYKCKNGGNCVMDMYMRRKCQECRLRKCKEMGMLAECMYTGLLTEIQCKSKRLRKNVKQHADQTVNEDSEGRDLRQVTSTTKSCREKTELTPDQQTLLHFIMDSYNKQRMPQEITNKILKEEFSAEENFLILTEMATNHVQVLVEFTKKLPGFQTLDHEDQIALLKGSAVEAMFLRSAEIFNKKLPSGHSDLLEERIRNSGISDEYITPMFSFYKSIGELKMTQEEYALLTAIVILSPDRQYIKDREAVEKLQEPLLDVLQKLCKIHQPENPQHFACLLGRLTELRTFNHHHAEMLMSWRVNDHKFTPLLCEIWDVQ
Briefly: Human Farnesoid X Receptor (NR1H4, FXR) Reporter Assay (Indigo Bioscience kit, luciferase). In kind it is cell-based. The following applies: for EC50: Human FXR (NR1H4) reporter assay, 22-24 h incubation; for Efficacy (%): normalized to GW4064 set as 100%. The text has this:
Human Farnesoid X Receptor (NR1H4, FXR) Reporter Assay
Determination of a ligand mediated Ga14 promoter driven transactivation to quantify ligand binding mediated activation of FXR. A FXR Reporter Assay kit was purchased from Indigo Bioscience (#IB00601-32) to determine the potency and efficacy of compounds that can induce FXR activation. The nuclear receptor assay system utilizes non-human mammalian cells engineered to provide constitutive high level expression of Human FXR receptor (NR1H4), a ligand-dependent transcription factor. The reporter cells include luciferase reporter gene functionality linked to an FXR-response promoter. Quantifying changes in luciferase expression in the treated reporter cells provides a sensitive surrogate measure of the changes in FXR activity.
The reporter cells incorporate the cDNA encoding beetle luciferase, a protein that catalyses the mono-oxidation of D-luciferin in a Mg^2+ dependent reaction that consumes O2 and ATP as co-substrates, yielding the products Oxylucifern, AMP, PPi, CO2 and photon (light) emission. Luminescence intensity of the reaction is quantified using a luminometer, and is reported in terms of Relative Light Units (RLU's).
The assay was performed according to the manufacturer's instructions. In brief, the test compounds were weighed and dissolved in phosphate buffer solution as a 10 mM stock and diluted to the appropriate concentration using Compound Screening Medium (CSM). The frozen reporter cells were thawed and suspended in Cell Recovery Medium at 37° C. The compounds were then immediately added to the cell plate and the plate was placed into a 37° C., humidified CO2 incubator for 22-24 h. After incubation, the media was carefully removed, Luciferase detection solution was added and the plate read in a Luminometer. The data was calculated as per kit instructions, with increases in luminescence being directly proportional to increases in compound agonist activity.

A short description of data set [3]: Metabolic identification in hepatocytes (dog). In kind it is in vitro ADME. The method, then:
as §1, §2

Data set [4] can be described thus: Metabolic identification in hepatocytes (human). In kind it is in vitro ADME. The method, then:
as §1
A 10 mM stock of test compound from Example 4 (sodium 2-(3-((5-cyclopropyl-3-(2-(trifluoromethoxy)phenyl)isoxazol-4-yl)methoxy)-8-azabicyclo[3.2.1]octan-8-yl)-4-fluorobenzo[d]thiazole-6-sulfinate) was prepared in DMSO. 20 μM of final working stock was then prepared by diluting 4 μL of 10 mM stock in 1996 μL of Krebs-Hensleit buffer. 200 μL of hepatocyte cell suspension (2×10^6 cells/mL) was added to TPP 48 well plate and preincubated for 30 min@37° C. in incubator. 200 μL of 20 μM working stock of test compound was added to the cell suspension and incubated in an incubator on vibramax at a shaking speed of 500 rpm. For the 0 min sample, 25 μL of hepatocyte suspension was precipitated with 200 μL of acetonitrile and 25 μL of 20 μM test compound was added. The reaction was stopped at 15, 30, 60, 90, 120 min by precipitating 50 μL of incubation mixture with 200 μL of acetonitrile. The samples were vortexed for 5 min at 1200 rpm and centrifuged at 4000 rpm for 10 min. The supernatant was separated, diluted 2 fold with water and analysed using a HPLC (Shimadzu SIL HTS) and mass spectrometer (5500 Qtrap). Acetonitrile and 0.1% formic acid in Milli-q-water were used as the mobile phase, using a column of either Waters Xbridge C18, 250×3.0 mm, 5.0μ particle size or Phenomnex kinetex 5μ EVO C18 100 A, 50×4.6 mm 5.0μ particle size.
Table 3 summarizes the major metabolites observed when the compound of Example 4 of the invention was incubated in human, dog or mouse hepatocytes.

A short description of data set [5]: Metabolism in human microsomes. Format: in vitro ADME. The following applies: 37° C.; for % remaining @ 45 mins of incubation with UDPGA: co-factor UDPGA only; for % remaining @ 45 mins of incubation with UDPGA and NADPH: co-factors UDPGA and NADPH. The method, then:
Metabolism in Human Microsomes
Microsomal mixes (247.5 μL) of human microsomes (1250 μL, 4 mg/ml), potassium phosphate buffer (1250 μL), alamethecin (12.5 μL, 5 mg/ml) and cofactors Nicotinamide Adenine Dinucleotide Phosphate NADPH (1250 μL, 4 mM)/uridine 5′-diphospho-glucuronic acid UDPGA (1250 μL, 4 mM) or UDPGA only were loaded onto a shaker for 10 minutes. The test compound (2.5 μL, 100 μM) was then separately added to both microsomal mixes (i.e., one mix with NADPH and one mix without NADPH), incubated at 37° C. and sampled at predetermined time points. Analysis was performed using a AB SCIEX QTRAP 4500 LC-MS/MS, a Kinetex C18, 50*4.6 mm, 5 μm column and eluting with 10 mM Ammonium Acetate/Methanol.
Table 2 summarizes the % of compound remaining after 45 minutes of incubation with human microsomes either in the presence of co-factors UDPGA and NADPH or UDPGA only.

`O=S([O-])c1cc(F)c2nc(N3[C@@H]4CC[C@H]3C[C@@H](OCc3c(-c5ccccc5OC(F)(F)F)noc3C3CC3)C4)sc2c1.[Na+]` [Example 4, Sodium 2-(3-((5-cyclopropyl-3-(2-(trifluoromethoxy)phenyl)isoxazol-4-yl)methoxy)-8-azabicyclo[3.2.1]octan-8-yl)-4-fluorobenzo[d]thiazole-6-sulfinate]: in data set [1], the Acyl-Glucuronide result is listed as “No”; the “Observed Major Metabolites” value is “Hydroxy, Di-hydroxy and Alkenyl-hydroxy”. For the same compound, in data set [2], the EC50 is below 0.5 µM and the “Efficacy (%)” value is listed as 94%. Also, in data set [3], the Acyl-Glucuronide result is listed as “No” and the “Observed Major Metabolites” value is reported as “Alkenyl-hydroxy”. In addition, in data set [4], the Acyl-Glucuronide entry was “No”; the “Observed Major Metabolites” value is “Hydroxy, Alkenyl and Alkenyl-hydroxy”. The “major metabolites formed (MS/MS spectra, FIG. 1)” value in data set [4] (incubation for 120 mins) is reported as “consistent with oxidative metabolism to give the corresponding hydroxy compound”. Also, in data set [5], the “% remaining @ 45 mins of incubation with UDPGA” value was 94%; the “% remaining @ 45 mins of incubation with UDPGA and NADPH” value stood at 52%.
In the case of `O=S([O-])c1cccc(N2CC(O)(c3ccc(OCc4c(-c5c(Cl)cccc5Cl)noc4C4CC4)cc3Cl)C2)c1.[Na+]` [Example 6, Sodium 3-(3-(2-chloro-4-((5-cyclopropyl-3-(2,6-dichlorophenyl)isoxazol-4-yl)methoxy)phenyl)-3-hydroxyazetidin-1-yl)benzenesulfinate], in data set [2], the EC50 was above 5 µM and the “Efficacy (%)” value is given as 96%. Moreover, in data set [5], the “% remaining @ 45 mins of incubation with UDPGA” value stood at 92%; the “% remaining @ 45 mins of incubation with UDPGA and NADPH” value was 26%.
With `O=S(O)c1ccc(C2CC(O)(c3ccc(OCc4c(-c5c(Cl)cccc5Cl)noc4C4CC4)cc3Cl)C2)cc1` (stereo not drawn) [Example 7, Sodium 4-(3-(2-chloro-4-((5-cyclopropyl-3-(2,6-dichlorophenyl)isoxazol-4-yl)methoxy)phenyl)-3-hydroxycyclobutyl)benzenesulfinic acid], in data set [2], the concentration giving a half-maximal response (EC50) is above 5 µM and the “Efficacy (%)” value is 89%. Moreover, in data set [5], the “% remaining @ 45 mins of incubation with UDPGA” value is recorded as 95%; the “% remaining @ 45 mins of incubation with UDPGA and NADPH” value is 38%.
Consider `O=S(O)c1ccc(C2CC2c2ccc(OCc3c(-c4c(Cl)cccc4Cl)noc3C3CC3)cc2Cl)cc1` (stereo not drawn) [Example 8, Sodium 4-(2-(2-chloro-4-((5-cyclopropyl-3-(2,6-dichlorophenyl)isoxazol-4-yl)methoxy)phenyl)cyclopropyl)benzenesulfinate], for which, in data set [2], the EC50 was in the range of 0.5 to 5 µM and the “Efficacy (%)” value is given as 127%.
